ChEMBL document CHEMBL6096692, “Discovery of 2(1H)-Quinoxalinone Derivatives as Potent and Selective MAT2A Inhibitors for the Treatment of MTAP-Deficient Cancers” (J Med Chem, 2025)
Active and inactive are the calls of the source. The calls are words filed in the database; no cut-off is given here.

How the values were obtained:
[1] = Selectivity index, ratio of IC50 for antiproliferative activity against mouse B16-F10 cells harboring wild type MTAP assessed as inhibition of cell viability to IC50 for antiproliferative activity against MTAP knockout mouse B16-F10 cells assessed as inhibition of cell viability; format: functional
[2] = system: B16-F10; assay: Antitumor activity against MTAP-knockout mouse B16-F10 cells implanted mouse assessed as reduction in SAM level in tumor at 30 to 60 mg/kg, po administered for 10 days and measured after 12 hrs; format: functional, organism-based; settings: dose 30-60 mg/kg, time 10.5 day
[3] = system: SF-126; assay: Induction of DNA damage in MTAP knockout human SF-126 cells assessed as increase in gammaH2AX level at 0.1 to 10 uM measured for 96 hrs by immunofluorescence analysis; format: functional, cell-based; settings: dose 0.1-10 µM
[4] = system: SF-126; assay: Induction of DNA damage in human SF-126 cells harboring wild type MTAP assessed as increase in gammaH2AX level at 0.1 to 10 uM measured for 96 hrs by immunofluorescence analysis; format: functional, cell-based; settings: dose 0.1-10 µM
[5] = system: MKN-45; assay: Antiproliferative activity against MTAP null human MKN-45 cells assessed as inhibition of cell viability measured for 96 hrs by SRB assay; format: functional, cell-based
[6] = target: S-adenosylmethionine synthase isoform type-2 (Homo sapiens, UniProt P31153); assay: Inhibition of MAT2A (unknown origin) using L-methionine and ATP as substrate preincubated with compound for 10 mins followed by substrate addition and measured after 60 mins by kinase-glo max reagent based microplate reader analysis
Chain of S-adenosylmethionine synthase isoform type-2 (P31153 whole entry, canonical isoform): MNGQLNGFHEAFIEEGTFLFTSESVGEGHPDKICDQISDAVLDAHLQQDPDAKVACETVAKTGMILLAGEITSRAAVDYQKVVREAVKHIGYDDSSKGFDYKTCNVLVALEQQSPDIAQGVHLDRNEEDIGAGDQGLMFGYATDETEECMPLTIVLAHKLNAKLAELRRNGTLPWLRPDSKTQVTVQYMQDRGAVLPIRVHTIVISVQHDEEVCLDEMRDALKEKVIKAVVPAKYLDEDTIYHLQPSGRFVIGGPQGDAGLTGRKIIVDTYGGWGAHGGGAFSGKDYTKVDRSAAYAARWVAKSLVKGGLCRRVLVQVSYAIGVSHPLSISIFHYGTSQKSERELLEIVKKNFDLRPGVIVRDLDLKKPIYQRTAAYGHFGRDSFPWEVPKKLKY

[7] = target: T1, Cytochrome P450 1A2 (Homo sapiens, UniProt P05177); assay: Inhibition of CYP1A2 in human liver microsomes using phenacetin as substrate incubated for 10 mins in presence of NADPH by LC-MS/MS analysis; format: ADME, Microsome
T1 sequence (P05177 whole entry): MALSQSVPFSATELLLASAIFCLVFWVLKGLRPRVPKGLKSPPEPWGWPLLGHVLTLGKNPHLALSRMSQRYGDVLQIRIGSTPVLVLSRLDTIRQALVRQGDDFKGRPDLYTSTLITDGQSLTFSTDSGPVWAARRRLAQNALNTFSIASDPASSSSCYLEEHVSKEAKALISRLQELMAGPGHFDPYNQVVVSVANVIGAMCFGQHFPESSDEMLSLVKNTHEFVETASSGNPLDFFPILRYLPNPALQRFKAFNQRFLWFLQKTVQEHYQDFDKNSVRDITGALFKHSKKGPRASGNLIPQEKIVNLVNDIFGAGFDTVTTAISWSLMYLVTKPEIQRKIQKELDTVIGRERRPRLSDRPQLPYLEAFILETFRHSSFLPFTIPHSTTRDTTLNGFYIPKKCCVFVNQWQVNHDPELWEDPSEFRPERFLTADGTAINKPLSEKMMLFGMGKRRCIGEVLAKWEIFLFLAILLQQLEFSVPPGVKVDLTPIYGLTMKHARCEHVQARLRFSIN

[8] = system: MCF7; assay: Antiproliferative activity against MTAP null human MCF7 cells assessed as inhibition of cell viability measured for 96 hrs by SRB assay; format: functional, cell-based
[9] = Cmax in male ICR mouse at 10 mg/kg, po measured upto 36 hrs by LC-MS/MS analysis; format: ADME, organism-based; settings: in vivo
[10] = target: S-adenosylmethionine synthase isoform type-2 (Mus musculus) (UniProt Q3THS6); assay: Inhibition of MAT2A in MTAP null mouse B16-F10 cells assessed as reduction in SAM level measured for 4 hrs by immunoblotting analysis; format: cell-based; settings: dose <= 1.0 µM
Chain of S-adenosylmethionine synthase isoform type-2 (Mus musculus) (Q3THS6 whole entry, canonical isoform): as the sequence (P31153 whole entry, canonical isoform) above, with V77I, V87I counted along it

[11] = AUC (0 to t) in male ICR mouse at 1 mg/kg, iv measured upto 36 hrs by LC-MS/MS analysis; format: ADME, organism-based; settings: in vivo
[12] = Toxicity in ICR mouse at 500 mg/kg, po measured for 7 days; format: organism-based; settings: in vivo, 168 h, time 7 day
[13] = system: MIA PaCa-2; assay: Antitumor activity against MTAP null human MIA PaCa-2 cells xenografted in mouse assessed as tumor growth inhibition at 60 mg/kg, po measured after 28 days; format: functional, organism-based; settings: time 28.0 day

In the case of `Cn1cnc2ccc(-c3nc4ccc(C5CC5)cc4n(-c4ccc(OC(F)F)cc4)c3=O)cc21`, the “Ratio IC50” value [1] is reported as greater than 46.5, the Activity [2] is reported as “Active” and the Activity [3] is reported as “Active”. The Activity [4] was “Active”, the Activity [5] was “Active” and the IC50 [6] was 49 nM. The IC50 [7] was greater than 30000 nM, the Activity [8] was “Active” and the Cmax [9] was 2600 ng/mL. The inhibition [10] was “Active”, the AUC(0-t) at 36 h [11] was 3100 ng·h/mL and the Activity [12] was “Non-toxic”. For the same compound, the TGI [13] was “Active”.
